Literature values, collected in patent US20090191194A1, “INHIBITION OF PROTEIN KINASE C ALPHA FOR THE TREATMENT OF CARDIOVASCULAR DISEASES” (Phenos GmbH, priority 2002, published 2009).

Columns and labels:
[1] = target: cellular protein kinase C-alpha (Homo sapiens, UniProt P17252); settings: by changing the phosphorylation state of PKC-alpha
PKC-alpha = PKC-alpha (Homo sapiens, UniProt P17252); settings: higher TPA concentration, for example 1.6 μM
[2] = test system: protein kinase C isoform alpha
[3] = test system: protein kinase C isoform beta I
[4] = test system: protein kinase C isoform beta II

With `Cc1c(C)c2c(c(C)c1O)CC[C@@](C)(CCC[C@H](C)CCC[C@H](C)CCCC(C)C)O2` [alpha-tocopherol] as the compound, how does the “inactivation of cellular protein kinase C-alpha” value [1] read?
Its value is “inactivate”.

For `CCCCCCCCCCCCCC(=O)O[C@@H]1[C@@H](C)[C@@]2(O)[C@@H](C=C(CO)C[C@]3(O)C(=O)C(C)=C[C@@H]23)[C@@H]2C(C)(C)[C@]12OC(C)=O` [TPA, 12-o-tetradecanoylphorbol-13-acetate], which PKC-alpha expression (PKC-alpha) is on record?
The PKC-alpha expression was “completely inhibits”.

What does the source list for cyclosporine A?
expression of protein kinase C isoform alpha [2]: reduces the expression; expression of protein kinase C isoform beta I [3]: reduces the expression; expression of protein kinase C isoform beta II [4]: reduces the expression
